# Measured values: patent US20100160369A1, “S1P1 Agonists and Methods of Making And Using” (EXELIXIS, INC., priority 2008, published 2010)
# pEC50: −log10 of the molar value. Structures can show the parent of a compound that is named as a salt.
# Key:
# Type in all cases: cell-based
# S1P1 [1] = target: T1, S1P1 (Homo sapiens, UniProt P21453); test: Tango β-arrestin Recruitment Assay in U2OS cells (Assay 2b); parameters: linker with TEV protease (N1a) cleavage site (C); conditions: Tango β-arrestin Recruitment Assay
# Summary of the method: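 U2OS cells expressing S1P1 and reporter, serum-starved 48 h, treated with compound (10-point 3-fold series, top 1 μM, 1% DMSO) overnight at 37 °C; β-lactamase substrate added 2 h at room temperature. F460/F530 ratio normalised to 1 μM S1P (100%) and DMSO; EC50 from concentration-response.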
# Target sequence in this assay (P21453 whole entry): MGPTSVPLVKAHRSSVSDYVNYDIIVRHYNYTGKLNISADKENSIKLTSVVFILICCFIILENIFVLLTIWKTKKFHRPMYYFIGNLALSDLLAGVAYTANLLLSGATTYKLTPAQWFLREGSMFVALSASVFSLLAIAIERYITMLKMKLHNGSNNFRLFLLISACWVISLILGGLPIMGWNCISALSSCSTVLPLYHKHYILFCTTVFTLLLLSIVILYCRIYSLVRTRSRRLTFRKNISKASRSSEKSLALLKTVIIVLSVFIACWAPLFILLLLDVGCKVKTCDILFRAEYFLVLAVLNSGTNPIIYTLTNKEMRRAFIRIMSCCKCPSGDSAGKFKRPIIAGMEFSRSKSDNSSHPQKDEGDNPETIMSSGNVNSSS
# Target sequence in this assay (P32121 whole entry partner): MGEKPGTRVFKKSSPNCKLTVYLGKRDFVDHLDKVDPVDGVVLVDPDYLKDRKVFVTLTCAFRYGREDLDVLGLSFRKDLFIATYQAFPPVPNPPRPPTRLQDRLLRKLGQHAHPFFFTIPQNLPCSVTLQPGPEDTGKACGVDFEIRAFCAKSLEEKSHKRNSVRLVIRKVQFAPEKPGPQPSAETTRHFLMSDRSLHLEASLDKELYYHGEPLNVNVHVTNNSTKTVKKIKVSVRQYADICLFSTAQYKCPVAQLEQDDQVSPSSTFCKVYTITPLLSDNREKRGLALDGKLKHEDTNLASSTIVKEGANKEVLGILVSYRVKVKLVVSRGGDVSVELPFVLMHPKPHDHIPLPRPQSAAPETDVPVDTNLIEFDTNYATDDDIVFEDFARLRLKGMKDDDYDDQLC
# S1P1 [2] = target: T1, S1P1; test: Tango β-arrestin Recruitment Assay in HEK293 cells (Assay 2a); parameters: linker with TEV protease (N1a) cleavage site (C); host or cells: HEK293, transiently transfected; conditions: Tango β-arrestin Recruitment Assay, read-out: Assay 2a EC50
# Text: For the Tango™ β-arrestin recruitment assay, the cytoplasmic C-terminus of S1P1 is tethered to the tTA transcriptional activator with a linker that contains a cleavage site for the N1a protease from tobacco etch virus (TEV protease). The C-terminus of the human β-arrestin2 protein is fused to TEV protease. Binding of an agonist recruits the β-arrestin-TEV fusion protein to the receptor resulting in cleavage of the linker and release of tTA to enter the nucleus and subsequently activate a tTA-dependent luciferase reporter gene.
# Frozen HEK293 cells transiently transfected with receptor cDNAs for S1P1 (Invitrogen) were thawed and suspended in 10 mL of Pro293a-CDM culture medium (Invitrogen) supplemented with 4 mM L-Glutamine (Invitrogen), 1× Pen/Strep (100 units/mL penicillin and 100 μg/mL streptomycin, Invitrogen) and 0.1% fatty acid free BSA (Sigma-Aldrich). Cells were added to the wells of a 384-well white opaque bottom assay plate (PerkinElmer) at 3,000-6,000 cells per well and the plate was incubated for approximately 4 h in a 37° C. incubator. Test compounds were tested at maximum concentrations of 10 μM for the agonist assays. Compounds were diluted in DMSO (10 concentration points, 3-fold each) and added to the assay plate at a 1% final DMSO concentration. For each compound, there were duplicate assay plates and each assay plate had duplicate wells per concentration point. The plate was incubated at 37° C. for 30 min. The efficacy control was 5 μM S1P (Avanti). Following agonist addition, the assay plates were incubated in a 37° C. incubator for 16-18 h. Luciferase assay reagent was added and luminescence measured in an EnVision plate reader (PerkinElmer). To determine agonist activity, percent activity was calculated as [(test compound−background)/(positive control−background)* 100], where background is the luminescence of the DMSO alone control and the positive control is the luminescence from cells incubated with the efficacy control 5 μM S1P. The percent activities were plotted against compound concentration to determine EC50 using XLFit (IDBS).
# Assay 1 is the CNG cAMP Assay as described in Biological Example 1. Assay 2a and 2b are the Tango™ β-arrestin Recruitment Assay in HEK293 and U2OS cells, respectively, as described in Biological Example 2. Assay 3a is the hS1P1R GTPγS Binding Assay as described in Biological Example 3. Assay 3b is the GTP-Eu Binding Assay as described in Biological Example 3. EC50's were measured unless otherwise noted. […] In the table, “nt” means the Compound was not tested and “no” means the compound was tested but had no measurable activity under the assay conditions employed.
# Target sequence in this assay (P21453 whole entry): as the sequence (P21453 whole entry) above
# Target sequence in this assay (P32121 whole entry partner): as the sequence (P32121 whole entry partner) above
# S1P1 [3] = target: T1, S1P1; test: CNG cAMP Assay (Assay 1); parameters: host or cells: HEK293 cells expressing the CNG channel; conditions: read-out: Assay 1 EC50
# Summary of the method: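 HEK293 cells expressing CNG channel and S1P1, membrane-potential dye loaded; compounds (top 10 μM, 10-point 3-fold, 1.8% DMSO) added with 25 μM Ro 20-1724, 500 nM NECA and 10 nM S1P for 90 min. T90/T0 fluorescence (Ex 350/Em 590 nm) normalised to NECA-alone vs DMSO; EC50 fitted.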
# Target sequence in this assay (P21453 whole entry): as the sequence (P21453 whole entry) above
# [4] = footnote 1: Relative EC50 was measured, read-out: Assay 2b relative EC50
pEC50 (S1P1 [1]; read-out: Assay 2b EC50),pEC50 (S1P1 [2]),pEC50 (S1P1 [3]),pEC50 (S1P1 [1]; [4]),SMILES
≥ 7.00,≥ 7.00,,,OC(COc1cc(Cl)c(-c2noc(-c3cn4cc(C(F)(F)F)cc(Cl)c4n3)n2)cc1Cl)C(F)(F)F (stereo not shown) [Entry 77]
≥ 7.00,≥ 7.00,,,CC(=O)COc1cc(Cl)c(-c2noc(-c3cn4cc(C(F)(F)F)cc(Cl)c4n3)n2)cc1Cl [Example 182]
6.30 to 7.00,,≥ 7.00,,"Oc1cc(Cl)c(-c2nnc(-c3cn4cc(C(F)(F)F)cc(Cl)c4n3)s2)cc1Cl [Example 224, 2,5-dichloro-4-{5-[8-chloro-6-(trifluoromethyl)imidazo[1,2-a]pyridin-2-yl]-1,3,4-thiadiazol-2-yl}phenol]"
≥ 7.00,,≥ 7.00,,"CC(CO)Oc1cc(Cl)c(-c2nc(-c3cn4cc(C(F)(F)F)cc(Cl)c4n3)no2)cc1Cl (stereo not shown) [Example 227, 2-[(2,5-dichloro-4-{3-[8-chloro-6-(trifluoromethyl)imidazo[1,2-a]pyridin-2-yl]-1,2,4-oxadiazol-5-yl}phenyl)oxy]propan-1-ol]"
6.30 to 7.00,,≥ 7.00,,"OCC(O)COc1ccc(-c2nnc(-c3cn4cc(C(F)(F)F)cc(Cl)c4n3)s2)c(Cl)c1 (stereo not shown) [Example 245, 3-[(3-chloro-4-{5-[8-chloro-6-(trifluoromethyl)imidazo[1,2-a]pyridin-2-yl]-1,3,4-thiadiazol-2-yl}phenyl)oxy]propane-1,2-diol]"
6.30 to 7.00,,≥ 7.00,,"CC(Oc1cc(Cl)c(-c2nnc(-c3cn4cc(C(F)(F)F)cc(Cl)c4n3)s2)cc1F)C(=O)O (stereo not shown) [Example 250, 2-[(5-chloro-4-{5-[8-chloro-6-(trifluoromethyl)imidazo[1,2-a]pyridin-2-yl]-1,3,4-thiadiazol-2-yl}-2-fluorophenyl)oxy]propanoic acid]"
≥ 7.00,,≥ 7.00,,"CC(CO)Oc1cc(Cl)c(-c2nnc(-c3cn4cc(C(F)(F)F)cc(Cl)c4n3)s2)cc1Cl (stereo not shown) [Example 251, 2-[(2,5-dichloro-4-{5-[8-chloro-6-(trifluoromethyl)imidazo[1,2-a]pyridin-2-yl]-1,3,4-thiadiazol-2-yl}phenyl)oxy]propan-1-ol]"
≥ 7.00,≥ 7.00,,,"NC(CO)COc1cc(Cl)c(-c2noc(-c3cn4cc(C(F)(F)F)cc(Cl)c4n3)n2)cc1Cl (stereo not shown) [Example 303, 2-amino-3-[(2,5-dichloro-4-{5-[8-chloro-6-(trifluoromethyl)imidazo[1,2-a]pyridin-2-yl]-1,2,4-oxadiazol-3-yl}phenyl)oxy]propan-1-ol]"
≥ 7.00,≥ 7.00,,,"C[C@@H](O)COc1cc(Cl)c(-c2noc(-c3cn4cc(C(F)(F)F)cc(Br)c4n3)n2)cc1Cl [Example 312, (2R)-1-[(4-{5-[8-bromo-6-(trifluoromethyl)imidazo[1,2-a]pyridin-2-yl]-1,2,4-oxadiazol-3-yl}-2,5-dichlorophenyl)oxy]propan-2-ol]"
≥ 7.00,≥ 7.00,,,"C[C@H](O)COc1cc(Cl)c(-c2noc(-c3cn4cc(C(F)(F)F)cc(Br)c4n3)n2)cc1Cl [Example 313, (2S)-1-[(4-{5-[8-bromo-6-(trifluoromethyl)imidazo[1,2-a]pyridin-2-yl]-1,2,4-oxadiazol-3-yl}-2,5-dichlorophenyl)oxy]propan-2-ol]"
≥ 7.00,≥ 7.00,,,"OC[C@@H](O)COc1cc(Cl)c(-c2noc(-c3cn4cc(C(F)(F)F)cc(Br)c4n3)n2)cc1Cl [Example 317, (2R)-3-[(4-{5-[8-bromo-6-(trifluoromethyl)imidazo[1,2-a]pyridin-2-yl]-1,2,4-oxadiazol-3-yl}-2,5-dichlorophenyl)oxy]propane-1,2-diol]"
≥ 7.00,,,,"C[C@H](COc1cc(Cl)c(-c2noc(-c3cn4cc(C(F)(F)F)cc(Cl)c4n3)n2)cc1Cl)OS(=O)(=O)O [Example 331, (1R)-2-[(2,5-dichloro-4-{5-[8-chloro-6-(trifluoromethyl)imidazo[1,2-a]pyridin-2-yl]-1,2,4-oxadiazol-3-yl}phenyl)oxy]-1-methylethyl hydrogen sulfate]"
≥ 7.00,,,,"CS(=O)(=O)NCc1ccc(-c2nnc(-c3cn4cc(C(F)(F)F)cc(Cl)c4n3)s2)c(Cl)c1 [Example 332, N-[(3-chloro-4-{5-[8-chloro-6-(trifluoromethyl)imidazo[1,2-a]pyridin-2-yl]-1,3,4-thiadiazol-2-yl}phenyl)methyl]methanesulfonamide]"
,,,6.30 to 7.00,"CS(=O)(=O)CCOc1cc(Cl)c(-c2noc(-c3cn4cc(C(F)(F)F)cc(Cl)c4n3)n2)cc1Cl [Example 333, 8-chloro-2-[3-(2,5-dichloro-4-{[2-(methylsulfonyl)ethyl]oxy}phenyl)-1,2,4-oxadiazol-5-yl]-6-(trifluoromethyl)imidazo[1,2-a]pyridine]"
≥ 7.00,,,,"N[C@@H](CO)COc1cc(Cl)c(-c2nnc(-c3cn4cc(C(F)(F)F)cc(Cl)c4n3)s2)cc1F [Example 335, (2S)-2-Amino-3-[(5-chloro-4-{5-[8-chloro-6-(trifluoromethyl)imidazo[1,2-a]pyridin-2-yl]-1,3,4-thiadiazol-2-yl}-2-fluorophenyl)oxy]propan-1-ol]"
≥ 7.00,,,,"NCC(O)COc1cc(Cl)c(-c2nnc(-c3cn4cc(C(F)(F)F)cc(Cl)c4n3)s2)cc1Cl (stereo not shown) [Example 336, 1-amino-3-[(2,5-dichloro-4-{5-[8-chloro-6-(trifluoromethyl)imidazo[1,2-a]pyridin-2-yl]-1,3,4-thiadiazol-2-yl}phenyl)oxy]propan-2-ol]"
6.30 to 7.00,,,,"Nc1cc(Cl)c(-c2noc(-c3cn4cc(C(F)(F)F)cc(Cl)c4n3)n2)cc1Cl [Example 337, 2,5-dichloro-4-{5-[8-chloro-6-(trifluoromethyl)imidazo[1,2-a]pyridin-2-yl]-1,2,4-oxadiazol-3-yl}aniline]"
6.30 to 7.00,,,,"Oc1cc(Cl)c(-c2nnc(-c3cn4cc(C(F)(F)F)cc(Cl)c4n3)s2)cc1F [Example 338, 5-chloro-4-{5-[8-chloro-6-(trifluoromethyl)imidazo[1,2-a]pyridin-2-yl]-1,3,4-thiadiazol-2-yl}-2-fluorophenol]"
≥ 7.00,,,,"NC(CO)COc1cc(Cl)c(-c2nnc(-c3cn4cc(Br)ccc4n3)s2)cc1F (stereo not shown) [Example 339, 2-amino-3-({4-[5-(6-bromoimidazo[1,2-a]pyridin-2-yl)-1,3,4-thiadiazol-2-yl]-5-chloro-2-fluorophenyl}oxy)propan-1-ol]"
,,,5.00 to 5.30,"CC(N)COc1cc(Cl)c(-c2nnc(-c3cn4cc(C(F)(F)F)ccc4n3)s2)cc1Cl (stereo not shown) [Example 340, 1-[(2,5-dichloro-4-{5-[6-(trifluoromethyl)imidazo[1,2-a]pyridin-2-yl]-1,3,4-thiadiazol-2-yl}phenyl)oxy]propan-2-amine]"
,,,6.00 to 6.30,COc1cc(Cl)c(-c2noc(-c3cn4cc(C(F)(F)F)cc(Cl)c4n3)n2)cc1Cl [Example 341]
6.30 to 7.00,,,,"N[C@H](CO)COc1cc(Cl)c(-c2nnc(-c3cn4cc(C(F)(F)F)cc(Cl)c4n3)s2)cc1Cl [Example 420, (2R)-2-amino-3-[(2,5-dichloro-4-{5-[8-chloro-6-(trifluoromethyl)imidazo[1,2-a]pyridin-2-yl]-1,3,4-thiadiazol-2-yl}phenyl)oxy]propan-1-ol]"
6.30 to 7.00,,,,"NC(CO)COc1cc(Cl)c(-c2nnc(-c3cn4ccc(C(F)(F)F)cc4n3)s2)cc1F (stereo not shown) [Example 421, 2-amino-3-[(5-chloro-2-fluoro-4-{5-[7-(trifluoromethyl)imidazo[1,2-a]pyridin-2-yl]-1,3,4-thiadiazol-2-yl}phenyl)oxy]propan-1-ol]"
